Among the data in patent US9705096B2, “Organic transistor, compound, organic semiconductor material for non-light-emitting organic semiconductor device, material for organic transistor, coating solution for non-light-emitting organic semiconductor device, organic semiconductor film for non-light-emitting organic semiconductor device, …” (FUJIFILM Corporation, priority 2014, dated 2017) are solubility values, retold here.

One may read the solubility as the dissolved amount per volume that the medium holds.

The nature of the series: Solubility in toluene. The settings on record: organic solvent or mixture, thermodynamic from solid; 20 mg compound mixed with toluene (1 mL). It counts as physicochemical. From the text: A: The compound was completely dissolved.
B: A bit of the compound was left undissolved.
C: Most of the compound was left undissolved.

Structures are written as SMILES.

Regarding `CCc1cc2sc3cc4sc5cc(CC)sc5c4cc3c2s1` [Comparative compound 1, reference compound], the solubility is below 20 mg/mL. For the compound `CC(C)CCCC(C)CCc1cc2sc3cc4sc5cc(CCC(C)CCCC(C)C)sc5c4cc3c2s1` (stereo not drawn) [Compound 31], the solubility was above 20 mg/mL. Turning to `CC(C)CCCC(C)CCc1ccc(-c2cc3sc4cc5sc6cc(-c7ccc(CCC(C)CCCC(C)C)s7)sc6c5cc4c3s2)s1` (stereo not drawn) [Compound 33], the solubility was above 20 mg/mL.
